In the NIST ThermoML archive (doi:10.1016/j.jct.2012.03.031):

Experiment: molar heat capacity at constant pressure
Conditions: 101.33 kPa

CCCCc1ccc(C(=O)Oc2ccc(C#N)c(F)c2)cc1 [4-cyano-3-fluorophenyl 4-butylbenzoate]
Conditions | molar heat capacity at constant pressure [J/K/mol]
141.25 K, Crystal 1, Small (less than 1 g) adiabatic calorimetry | 201.94
142.25 K, Crystal 1, Small (less than 1 g) adiabatic calorimetry | 202.81
142.97 K, Crystal 2, Small (less than 1 g) adiabatic calorimetry | 216.4
143.16 K, Crystal 1, Small (less than 1 g) adiabatic calorimetry | 203.97
144.71 K, Crystal 1, Small (less than 1 g) adiabatic calorimetry | 205.52
145.06 K, Crystal 1, Small (less than 1 g) adiabatic calorimetry | 206.05
145.3 K, Crystal 2, Small (less than 1 g) adiabatic calorimetry | 219.62
146.94 K, Crystal 1, Small (less than 1 g) adiabatic calorimetry | 208.17
147.18 K, Crystal 1, Small (less than 1 g) adiabatic calorimetry | 208.18
147.65 K, Crystal 2, Small (less than 1 g) adiabatic calorimetry | 221.78
148.81 K, Crystal 1, Small (less than 1 g) adiabatic calorimetry | 210.18
149.66 K, Crystal 1, Small (less than 1 g) adiabatic calorimetry | 210.87
150 K, Crystal 1, Vacuum adiabatic calorimetry | 211.22
150 K, Crystal 2, Small (less than 1 g) adiabatic calorimetry | 226.25
150 K, Crystal 2, Vacuum adiabatic calorimetry | 226.24
150.66 K, Crystal 1, Small (less than 1 g) adiabatic calorimetry | 212.24
152.15 K, Crystal 1, Small (less than 1 g) adiabatic calorimetry | 213.41
152.37 K, Crystal 2, Small (less than 1 g) adiabatic calorimetry | 229.33
152.5 K, Crystal 1, Small (less than 1 g) adiabatic calorimetry | 214.29
154.33 K, Crystal 1, Small (less than 1 g) adiabatic calorimetry | 216.32
154.65 K, Crystal 1, Small (less than 1 g) adiabatic calorimetry | 216.65
154.75 K, Crystal 2, Small (less than 1 g) adiabatic calorimetry | 232.46
156.14 K, Crystal 1, Small (less than 1 g) adiabatic calorimetry | 218.31
157.14 K, Crystal 2, Small (less than 1 g) adiabatic calorimetry | 235.73
157.17 K, Crystal 1, Small (less than 1 g) adiabatic calorimetry | 219.23
157.94 K, Crystal 1, Small (less than 1 g) adiabatic calorimetry | 220.33
159.54 K, Crystal 2, Small (less than 1 g) adiabatic calorimetry | 238.88
159.69 K, Crystal 1, Small (less than 1 g) adiabatic calorimetry | 222.08
159.74 K, Crystal 1, Small (less than 1 g) adiabatic calorimetry | 222.37
160 K, Crystal 1, Vacuum adiabatic calorimetry | 222.43
160 K, Crystal 2, Vacuum adiabatic calorimetry | 239.47
161.51 K, Crystal 1, Small (less than 1 g) adiabatic calorimetry | 224.35
161.96 K, Crystal 2, Small (less than 1 g) adiabatic calorimetry | 242.01
162.23 K, Crystal 1, Small (less than 1 g) adiabatic calorimetry | 224.93
163.28 K, Crystal 1, Small (less than 1 g) adiabatic calorimetry | 226.23
164.39 K, Crystal 2, Small (less than 1 g) adiabatic calorimetry | 245.1
164.77 K, Crystal 1, Small (less than 1 g) adiabatic calorimetry | 227.75
164.86 K, Crystal 1, Small (less than 1 g) adiabatic calorimetry | 227.97
166.27 K, Crystal 1, Small (less than 1 g) adiabatic calorimetry | 229.58
166.83 K, Crystal 2, Small (less than 1 g) adiabatic calorimetry | 248.12
167.33 K, Crystal 1, Small (less than 1 g) adiabatic calorimetry | 230.64
167.66 K, Crystal 1, Small (less than 1 g) adiabatic calorimetry | 231.21
169.05 K, Crystal 1, Small (less than 1 g) adiabatic calorimetry | 232.8
169.28 K, Crystal 2, Small (less than 1 g) adiabatic calorimetry | 251.2
169.91 K, Crystal 1, Small (less than 1 g) adiabatic calorimetry | 233.56
170 K, Crystal 1, Vacuum adiabatic calorimetry | 233.66
170 K, Crystal 2, Vacuum adiabatic calorimetry | 252.09
170.44 K, Crystal 1, Small (less than 1 g) adiabatic calorimetry | 234.45
171.75 K, Crystal 2, Small (less than 1 g) adiabatic calorimetry | 254.25
171.81 K, Crystal 1, Small (less than 1 g) adiabatic calorimetry | 235.91
172.49 K, Crystal 1, Small (less than 1 g) adiabatic calorimetry | 236.43
173.18 K, Crystal 1, Small (less than 1 g) adiabatic calorimetry | 237.49
174.23 K, Crystal 2, Small (less than 1 g) adiabatic calorimetry | 257.27
174.55 K, Crystal 1, Small (less than 1 g) adiabatic calorimetry | 239.04
175.09 K, Crystal 1, Small (less than 1 g) adiabatic calorimetry | 239.43
175.91 K, Crystal 1, Small (less than 1 g) adiabatic calorimetry | 240.69
176.72 K, Crystal 2, Small (less than 1 g) adiabatic calorimetry | 260.38
177.26 K, Crystal 1, Small (less than 1 g) adiabatic calorimetry | 242.06
177.69 K, Crystal 1, Small (less than 1 g) adiabatic calorimetry | 242.43
178.61 K, Crystal 1, Small (less than 1 g) adiabatic calorimetry | 243.74
179.23 K, Crystal 2, Small (less than 1 g) adiabatic calorimetry | 263.65
179.95 K, Crystal 1, Small (less than 1 g) adiabatic calorimetry | 245.46
180 K, Crystal 1, Vacuum adiabatic calorimetry | 245.15
180 K, Crystal 2, Vacuum adiabatic calorimetry | 264.63
180.31 K, Crystal 1, Small (less than 1 g) adiabatic calorimetry | 245.52
181.28 K, Crystal 1, Small (less than 1 g) adiabatic calorimetry | 246.9
181.74 K, Crystal 2, Small (less than 1 g) adiabatic calorimetry | 266.86
182.62 K, Crystal 1, Small (less than 1 g) adiabatic calorimetry | 248.29
182.95 K, Crystal 1, Small (less than 1 g) adiabatic calorimetry | 248.51
183.94 K, Crystal 1, Small (less than 1 g) adiabatic calorimetry | 249.95
184.27 K, Crystal 2, Small (less than 1 g) adiabatic calorimetry | 270.08
185.26 K, Crystal 1, Small (less than 1 g) adiabatic calorimetry | 251.54
185.59 K, Crystal 1, Small (less than 1 g) adiabatic calorimetry | 251.57
186.58 K, Crystal 1, Small (less than 1 g) adiabatic calorimetry | 253
186.82 K, Crystal 2, Small (less than 1 g) adiabatic calorimetry | 273.41
187.89 K, Crystal 1, Small (less than 1 g) adiabatic calorimetry | 254.44
188.25 K, Crystal 1, Small (less than 1 g) adiabatic calorimetry | 254.7
189.2 K, Crystal 1, Small (less than 1 g) adiabatic calorimetry | 256.01
189.37 K, Crystal 2, Small (less than 1 g) adiabatic calorimetry | 276.6
190 K, Crystal 1, Vacuum adiabatic calorimetry | 256.78
190 K, Crystal 2, Vacuum adiabatic calorimetry | 277.35
190.5 K, Crystal 1, Small (less than 1 g) adiabatic calorimetry | 257.62
190.92 K, Crystal 1, Small (less than 1 g) adiabatic calorimetry | 257.87
191.8 K, Crystal 1, Small (less than 1 g) adiabatic calorimetry | 259.15
191.94 K, Crystal 2, Small (less than 1 g) adiabatic calorimetry | 279.67
193.09 K, Crystal 1, Small (less than 1 g) adiabatic calorimetry | 260.81
193.6 K, Crystal 1, Small (less than 1 g) adiabatic calorimetry | 261.01
194.38 K, Crystal 1, Small (less than 1 g) adiabatic calorimetry | 262.19
194.52 K, Crystal 2, Small (less than 1 g) adiabatic calorimetry | 282.72
195.67 K, Crystal 1, Small (less than 1 g) adiabatic calorimetry | 263.76
196.29 K, Crystal 1, Small (less than 1 g) adiabatic calorimetry | 264.21
196.94 K, Crystal 1, Small (less than 1 g) adiabatic calorimetry | 265.24
197.12 K, Crystal 2, Small (less than 1 g) adiabatic calorimetry | 285.61
198.22 K, Crystal 1, Small (less than 1 g) adiabatic calorimetry | 266.88
199 K, Crystal 1, Small (less than 1 g) adiabatic calorimetry | 267.79
199.49 K, Crystal 1, Small (less than 1 g) adiabatic calorimetry | 268.59
199.73 K, Crystal 2, Small (less than 1 g) adiabatic calorimetry | 288.75
200 K, Crystal 1, Vacuum adiabatic calorimetry | 269.03
200 K, Crystal 2, Vacuum adiabatic calorimetry | 289.06
200.76 K, Crystal 1, Small (less than 1 g) adiabatic calorimetry | 270.11
201.72 K, Crystal 1, Small (less than 1 g) adiabatic calorimetry | 271.16
202.02 K, Crystal 1, Small (less than 1 g) adiabatic calorimetry | 271.81
202.35 K, Crystal 2, Small (less than 1 g) adiabatic calorimetry | 291.75
203.27 K, Crystal 1, Small (less than 1 g) adiabatic calorimetry | 273.36
204.44 K, Crystal 1, Small (less than 1 g) adiabatic calorimetry | 274.73
204.53 K, Crystal 1, Small (less than 1 g) adiabatic calorimetry | 275.01
204.98 K, Crystal 2, Small (less than 1 g) adiabatic calorimetry | 294.58
205.77 K, Crystal 1, Small (less than 1 g) adiabatic calorimetry | 276.69
207.02 K, Crystal 1, Small (less than 1 g) adiabatic calorimetry | 278.34
207.18 K, Crystal 1, Small (less than 1 g) adiabatic calorimetry | 278.39
207.63 K, Crystal 2, Small (less than 1 g) adiabatic calorimetry | 297.45
208.26 K, Crystal 1, Small (less than 1 g) adiabatic calorimetry | 279.95
209.49 K, Crystal 1, Small (less than 1 g) adiabatic calorimetry | 281.68
209.93 K, Crystal 1, Small (less than 1 g) adiabatic calorimetry | 282.11
210 K, Crystal 1, Vacuum adiabatic calorimetry | 282.2
210 K, Crystal 2, Vacuum adiabatic calorimetry | 300.06
210.29 K, Crystal 2, Small (less than 1 g) adiabatic calorimetry | 300.38
210.72 K, Crystal 1, Small (less than 1 g) adiabatic calorimetry | 283.2
211.95 K, Crystal 1, Small (less than 1 g) adiabatic calorimetry | 284.9
212.69 K, Crystal 1, Small (less than 1 g) adiabatic calorimetry | 285.7
212.97 K, Crystal 2, Small (less than 1 g) adiabatic calorimetry | 303.2
213.18 K, Crystal 1, Small (less than 1 g) adiabatic calorimetry | 286.42
214.4 K, Crystal 1, Small (less than 1 g) adiabatic calorimetry | 288
215.46 K, Crystal 1, Small (less than 1 g) adiabatic calorimetry | 289.41
215.62 K, Crystal 1, Small (less than 1 g) adiabatic calorimetry | 289.65
215.65 K, Crystal 2, Small (less than 1 g) adiabatic calorimetry | 306.03
216.83 K, Crystal 1, Small (less than 1 g) adiabatic calorimetry | 291.26
218.04 K, Crystal 1, Small (less than 1 g) adiabatic calorimetry | 292.84
218.24 K, Crystal 1, Small (less than 1 g) adiabatic calorimetry | 293.08
218.35 K, Crystal 2, Small (less than 1 g) adiabatic calorimetry | 308.99
219.24 K, Crystal 1, Small (less than 1 g) adiabatic calorimetry | 294.47
220 K, Crystal 1, Vacuum adiabatic calorimetry | 295.42
220 K, Crystal 2, Vacuum adiabatic calorimetry | 310.55
220.45 K, Crystal 1, Small (less than 1 g) adiabatic calorimetry | 296.21
221.03 K, Crystal 1, Small (less than 1 g) adiabatic calorimetry | 296.79
